Results as given in the NIST ThermoML archive (doi:10.1021/je5010214).

Conditions: Liquid, Vibrating tube method

CC(C)CO [2-methyl-1-propanol]
Conditions | mass density [kg/m3]
323.15 K, 32903 kPa | 805.081
323.15 K, 33102 kPa | 805.154
323.15 K, 33950 kPa | 805.707
323.15 K, 34958 kPa | 806.425
323.15 K, 37883 kPa | 808.369
323.15 K, 39891 kPa | 809.68
323.15 K, 42065 kPa | 811.076
323.15 K, 44846 kPa | 812.852
323.15 K, 49935 kPa | 815.968
323.15 K, 52064 kPa | 817.249
323.15 K, 54897 kPa | 818.944
323.15 K, 57818 kPa | 820.634
323.15 K, 59855 kPa | 821.787
323.15 K, 61856 kPa | 822.928
323.15 K, 64838 kPa | 824.6
323.15 K, 65957 kPa | 825.209
323.16 K, 1117.8 kPa | 779.897
323.16 K, 47886 kPa | 814.721
328.15 K, 96.5 kPa | 774.907
328.15 K, 395.8 kPa | 775.157
328.15 K, 904.1 kPa | 775.603
328.15 K, 1030.6 kPa | 775.74
328.15 K, 2999.3 kPa | 777.646
328.15 K, 5042 kPa | 779.515
328.15 K, 10121 kPa | 784.077
328.15 K, 11905 kPa | 785.621
328.15 K, 24953 kPa | 795.929
328.15 K, 27874 kPa | 798.098
328.15 K, 29949 kPa | 799.588
328.15 K, 31948 kPa | 800.996
328.15 K, 33061 kPa | 801.681
328.15 K, 34111 kPa | 802.415
328.15 K, 34984 kPa | 803.007
328.15 K, 37913 kPa | 805.001
328.15 K, 41958 kPa | 807.674
328.15 K, 44806 kPa | 809.5
328.15 K, 55150 kPa | 815.995
328.15 K, 58100 kPa | 817.75
328.15 K, 60045 kPa | 818.881
328.15 K, 62082 kPa | 820.048
328.15 K, 66095 kPa | 822.334
328.16 K, 515 kPa | 775.262
328.16 K, 2069.7 kPa | 776.794
328.16 K, 6936.7 kPa | 781.257
328.16 K, 8874.2 kPa | 782.985
328.16 K, 14954 kPa | 788.149
328.16 K, 17891 kPa | 790.513
328.16 K, 20040 kPa | 792.21
328.16 K, 22054 kPa | 793.773
328.16 K, 33018 kPa | 801.745
328.16 K, 39966 kPa | 806.346
328.16 K, 47820 kPa | 811.414
328.16 K, 49817 kPa | 812.637
328.16 K, 52099 kPa | 814.145
328.16 K, 64955 kPa | 821.692
333.15 K, 95.7 kPa | 770.629
333.15 K, 913.6 kPa | 771.467
333.15 K, 6965.6 kPa | 777.259
333.15 K, 8937.3 kPa | 779.076
333.15 K, 9995.1 kPa | 780.005
333.15 K, 11970 kPa | 781.72
333.15 K, 14915 kPa | 784.255
333.15 K, 22033 kPa | 790.027
333.15 K, 29996 kPa | 796.045
333.15 K, 31986 kPa | 797.49
333.15 K, 32928 kPa | 798.124
333.15 K, 41792 kPa | 804.162
333.15 K, 47830 kPa | 808.087
333.15 K, 49895 kPa | 809.38
333.15 K, 51876 kPa | 810.61
333.15 K, 54830 kPa | 812.44
333.15 K, 58116 kPa | 814.429
333.15 K, 59975 kPa | 815.509
333.15 K, 61974 kPa | 816.676
333.15 K, 65057 kPa | 818.467
333.15 K, 66042 kPa | 819.039
333.16 K, 295.9 kPa | 770.818
333.16 K, 574.5 kPa | 771.11
333.16 K, 1069.5 kPa | 771.621
333.16 K, 2110.6 kPa | 772.649
333.16 K, 3100 kPa | 773.622
333.16 K, 5034 kPa | 775.464
333.16 K, 17954 kPa | 786.777
333.16 K, 19985 kPa | 788.397
333.16 K, 24923 kPa | 792.261
333.16 K, 27922 kPa | 794.514
333.16 K, 33031 kPa | 798.137
333.16 K, 34001 kPa | 798.837
333.16 K, 35030 kPa | 799.567
333.16 K, 37925 kPa | 801.558
333.16 K, 39862 kPa | 802.861
333.16 K, 44782 kPa | 806.126
338.15 K, 72.5 kPa | 765.803
338.15 K, 267.1 kPa | 766.009
338.15 K, 496.5 kPa | 766.255
338.15 K, 821.3 kPa | 766.6
338.15 K, 1007.7 kPa | 766.796
338.15 K, 2012.4 kPa | 767.824
338.15 K, 3039.1 kPa | 768.845
338.15 K, 7018.5 kPa | 772.739
338.15 K, 8987.6 kPa | 774.596
338.15 K, 10054 kPa | 775.578
338.15 K, 18105 kPa | 782.627
338.15 K, 22120 kPa | 785.947
338.15 K, 28029 kPa | 790.565
338.15 K, 32010 kPa | 793.527
338.15 K, 32776 kPa | 794.103
338.15 K, 32995 kPa | 794.184
338.15 K, 33922 kPa | 794.869
338.15 K, 38056 kPa | 797.798
338.15 K, 42127 kPa | 800.629
338.15 K, 48090 kPa | 804.572
338.15 K, 50121 kPa | 805.906
338.15 K, 52094 kPa | 807.168
338.15 K, 55116 kPa | 809.055
338.15 K, 58010 kPa | 810.837
338.15 K, 60191 kPa | 812.149
338.15 K, 62244 kPa | 813.373
338.15 K, 65243 kPa | 815.143
338.15 K, 65986 kPa | 815.583
338.15 K, 66355 kPa | 815.805
338.16 K, 5091.1 kPa | 770.879
338.16 K, 12131 kPa | 777.462
338.16 K, 15171 kPa | 780.113
338.16 K, 20167 kPa | 784.349
338.16 K, 25290 kPa | 788.465
338.16 K, 30041 kPa | 792.069
338.16 K, 35102 kPa | 795.7
338.16 K, 39987 kPa | 799.156
338.16 K, 45109 kPa | 802.623
343.15 K, 55.6 kPa | 761.239
343.15 K, 101.8 kPa | 761.279
343.15 K, 277.3 kPa | 761.484
343.15 K, 487.7 kPa | 761.699
343.15 K, 881.6 kPa | 762.13
343.15 K, 1037 kPa | 762.294
343.15 K, 1941.4 kPa | 763.263
343.15 K, 3000.3 kPa | 764.362
343.15 K, 4957 kPa | 766.378
343.15 K, 6956.1 kPa | 768.377
343.15 K, 8969.5 kPa | 770.304
343.15 K, 10003 kPa | 771.264
343.15 K, 11997 kPa | 773.149
343.15 K, 14895 kPa | 775.758
343.15 K, 17840 kPa | 778.358
343.15 K, 20135 kPa | 780.417
343.15 K, 21925 kPa | 781.908
343.15 K, 24920 kPa | 784.349
343.15 K, 27949 kPa | 786.755
343.15 K, 29863 kPa | 788.238
343.15 K, 31874 kPa | 789.777
343.15 K, 32927 kPa | 790.544
343.15 K, 32981 kPa | 790.602
343.15 K, 34026 kPa | 791.305
343.15 K, 35028 kPa | 792.011
343.15 K, 38080 kPa | 794.257
343.15 K, 39908 kPa | 795.53
343.15 K, 41973 kPa | 796.98
343.15 K, 44972 kPa | 799.034
343.15 K, 47997 kPa | 801.072
